Experimental data from article PMC8533333, “Melatonin Analogues Potently Inhibit MAO-B and Protect PC12 Cells against Oxidative Stress” (Antioxidants, 2021).

Experiments:
[1] = biological target: T1, Human recombinant MAO-A (hMAO-A) (Homo sapiens, UniProt P21397); assay: MAO-A enzyme assay (Amplex Red), selectivity; type: biochemical
T1 construct: purchased Sigma Aldrich; host or cells: insect cells
T1 sequence (P21397 1-527): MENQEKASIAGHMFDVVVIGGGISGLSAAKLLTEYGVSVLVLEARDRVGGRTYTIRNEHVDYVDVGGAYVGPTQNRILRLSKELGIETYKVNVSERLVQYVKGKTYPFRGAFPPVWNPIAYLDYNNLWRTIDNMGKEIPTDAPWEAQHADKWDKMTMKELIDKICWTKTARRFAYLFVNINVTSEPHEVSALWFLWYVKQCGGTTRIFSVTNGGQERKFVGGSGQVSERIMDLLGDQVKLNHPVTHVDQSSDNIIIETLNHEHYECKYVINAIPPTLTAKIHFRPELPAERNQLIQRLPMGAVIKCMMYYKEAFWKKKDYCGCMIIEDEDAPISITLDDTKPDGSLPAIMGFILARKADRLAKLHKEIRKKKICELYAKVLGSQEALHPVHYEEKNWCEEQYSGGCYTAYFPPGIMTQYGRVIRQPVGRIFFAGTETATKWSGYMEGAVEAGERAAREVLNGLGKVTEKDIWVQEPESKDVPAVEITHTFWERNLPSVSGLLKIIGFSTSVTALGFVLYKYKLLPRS
Protocol: Biological evaluation of the synthesized melatonin derivatives over both MAO-A and MAO-B was performed as reported previously. A detailed description of the protocol is in the Supplementary Materials.
6. Materials and methods of monoamine oxidase (MAO) enzyme assay
The inhibitory activity of MAO-A, B enzyme of the compounds was evaluated based on previously described method. The MAO activity was measured in relative fluorescence units (RFU) evoked by peroxidase-catalyzed oxidation of Amplex Red® to resorufin, in which H2O2 generated by MAO reaction was used as the […]. Human recombinant MAO-A (hMAO-A) and MAO-B (hMAO-B) enzyme expressed in insect cells were obtained from Sigma Aldrich. The 2 μL of test compound in DMSO (final concentration: 1 nM – 10 μM) was treated with 98 μL of hMAO enzyme solution in 50 mM sodium phosphate buffer (pH 7.4, final protein amounts: ~1.25 μg protein/well for MAO-A and ~2.5 μg protein/well for MAO -B) on 96-well black plate and incubated for 15 min at 37 °C. Then 100 μL of reaction working solution which is mixed solution of 400 μM Amplex Red® (Cayman, final concentration: 200 μM), 2 U/mL horseradish peroxidase ( Sigma-Aldrich, final concentration: 1 U/mL) and 2 mM substrate ( p-tyramine for MAO -A, benzylamine for MAO -B, Sigma-Aldrich, final concentration: 1 mM) in 50 mM sodium phosphate buffer (pH 7.4) were added and incubated for 20 min at 37 °C in the dark. The fluorescent intensity was quantified using a microplate reader (SpectraMax®i3, Molecular Device) with an excitation at 545 nm and an emission at 590 nm. The 50% inhibitory concentrations (IC50) of compounds were determined as the mean ± S.E.M. in triplicate from the dose-response inhibition curves using SigmaPlot® 13.0.
monoamine oxidase inhibitors. Bioorganic & medicinal chemistry 2015, 23, 6486-6496,

[2] = test system: PC12 cells; assay: Neuroprotection against rotenone-induced toxicity in PC12 cells (MTT); conditions: Rattus norvegicus, PC-12, 24 h, read-out: IC50 of protection from rotenone-induced toxicity
Protocol: Control cells were incubated in an equivalent volume of DMSO to a final concentration of 0.3%. Neuroprotective effects of the tested compounds on the toxicity induced by 6-OHDA or rotenone in PC12 cells were evaluated as described previously with slight modifications. In brief, cells were pre-treated with the tested compounds or rasagiline at the indicated concentrations for 4 h. Next, they were exposed to 6-OHDA (50 μM) or rotenone (1 μM) for 24 h. In another set of experiments, the influence of HO-1 inhibitor, ZnPP, on the neuroprotective effects of the tested compounds against 6-OHDA-induced oxidative damage was investigated as previously reported. Briefly, the cells were pre-treated with the tested compounds for 4 h and then incubated with 0.2 µM of ZnPP for 30 min. Subsequently, 6-OHDA was added at a final concentration of 50 µM and incubated for 24 h.
After the desired treatment, cell viability was determined by MTT assay as described previously. Briefly, MTT was added to the cells at the final concentration of 0.5 mg/mL, which was followed by incubation for 3 h at 37 °C. The supernatants were carefully removed, and then, 300 μL of DMSO was added to each well to dissolve formazan precipitate. The absorbance of the dissolved solution was measured at 550 nm using a microplate reader (SpectraMax M2^e, Molecular Devices, Sunnyvale, CA, USA). The cell viability was presented as the percentage of the absorbance measured in the vehicle-treated control cells.

[3] = test system: HO-1; assay: HO-1 protein expression in PC12 cells (Western blotting); type: cell-based, rat; conditions: for HO-1 protein expression over time: 10 μM, 1 to 12 h, significant at 6–12 h; for increase in HO-1 expression: 30 μM, 12 h
Protocol: (§1) PC12 cells were seeded on 35 mm dishes at a density of 2 × 10^6 cells/dish and kept at 37 °C in humidified incubator for at least 24 h. Cells were treated with a series of concentrations of the tested compounds for 12 h or with the tested compounds (10 μM) for the indicated time points. Control cells were treated with serum-free media containing 0.3% DMSO instead. Total cell lysates were prepared according to the methods described previously, and stored at −20 °C until used. To evaluate the effects of the tested compounds on the nuclear translocation of Nrf2, nuclear fraction was separated from cytosolic fraction using NE-PER Nuclear and Cytoplasmic Extraction Reagents (Rockford, IL, USA), following the manufacturer’s directions. The protein concentrations were assessed using a BioRad DC protein assay kit (BioRad, Hercules, CA, USA). Equal amounts of proteins (20 µg) were resolved on 12% or 8% gels via sodium dodecyl sulfate-polyacrylamide gel electrophoresis and electrophoretically transferred onto nitrocellulose membrane (Whatman, Clifton, NJ, USA). Subsequently, immunoblotting was performed using anti-HO-1 or anti-Nrf2 antibodies, respectively, according to the procedures reported previously. Beta-actin, a highly conserved cytoskeletal protein, was used as a loading control of cell lysates to normalize the level of HO-1, while nuclear protein lamin B was used as a nuclear loading control to normalize the level of Nrf2 in the nuclear fraction. Finally, the immunoreactive bands corresponding to HO-1 or Nrf2 proteins were visualized using Clarity^TM Western ECL substrate (Bio-Rad, Hercules, CA, USA) using the BioRad ChemiDoc XRS imaging system (Bio-Rad, Hercules, CA, USA).

[4] = test system: Nrf2; assay: Nuclear translocation of Nrf2 in PC12 cells (Western blotting); type: cell-based, rat; conditions: for time of peak Nrf2 protein expression: 10 μM; for nuclear translocation of Nrf2: PC12 nuclear fraction, Western blotting
Protocol: as §1
Nrf2 is a transcription factor involved in the expression of antioxidant defense enzymes in response to oxidative stress. Upon nuclear translocation, Nrf2 binds to antioxidant response elements (AREs), leading to the transcription of ARE genes such as HO-1 [111]. […] Nrf2 protein expression peaked after 6 h of treatment with each compound at 10 μM (Figure 15A,B). […] The nuclear translocation of Nrf2 was increased by 3n and 3r in concentration-dependent manners (Figure 16C,D).

SMILES | IC50 [1] | IC50 [2] | HO-1 protein expression over time [3] | increase in HO-1 expression [3] | time of peak Nrf2 protein expression [4] | nuclear translocation of Nrf2 [4]
O=C(Nc1ccc2[nH]ccc2c1)c1cccc(Cl)c1 [3n, 3-Chloro-N-(1H-indol-5-yl)benzamide] | > 100000 nM | 1400 nM | time-dependent increases | 1.6 fold | 6 h | increased
O=C(Nc1ccc2[nH]ccc2c1)c1cccc(Br)c1 [3r, 3-Bromo-N-(1H-indol-5-yl)benzamide] | > 100000 nM | 870 nM | time-dependent increases | 1.7 fold | 6 h | increased
